Data from patent US20090053168A1, “TREATMENTS OF B-CELL PROLIFERATIVE DISORDERS” (priority 2007, published 2009).
Several values for one entry are separate records, joined by “and”; a condition that tells them apart may be missing. Equal entries are not always repeated. Where two headings read alike, the source gives them in different places. Blank lines part the entries; values can stand above or below the compound they belong to.

Key:
RPMI-8226 cells = experiment: Anti-proliferation assay (ATPLite, 72 h), RPMI-8226; assay type: cell-based; details: in combination with ADAC; RPMI-8226
H929 cells = experiment: Anti-proliferation assay (ATPLite, 72 h), H929; assay type: cell-based
MM.1R cells = experiment: Anti-proliferation assay (ATPLite, 72 h), MM.1R; assay type: cell-based; details: in combination with ADAC; MM.1R
MOLP-8 cells = experiment: Anti-proliferation assay (ATPLite, 72 h), MOLP-8; assay type: cell-based; details: in combination with CGS-21680
OPM2 cells = experiment: Anti-proliferation assay (ATPLite, 72 h), OPM2; assay type: cell-based, human; details: in combination with CGS-21680; OPM-8
EJM cells = experiment: Anti-proliferation assay (ATPLite, 72 h), EJM; assay type: cell-based
ANBL-6 cells = experiment: Anti-proliferation assay (ATPLite, 72 h), ANBL-6; assay type: cell-based; details: in combination with CGS-21680
KSM-12-PE cells = experiment: Anti-proliferation assay (ATPLite, 72 h), KSM-12-PE; assay type: cell-based
OCI-ly10 DLBCL cells = experiment: Anti-proliferation assay (ATPLite, 72 h), OCI-ly10; assay type: cell-based; details: in combination with CGS-21680
Karpas 422 DLBCL cells = experiment: Anti-proliferation assay (ATPLite, 72 h), Karpas 422; assay type: cell-based; details: in combination with CGS-21680
SU-DHL6 DLBCL cells = experiment: Anti-proliferation assay (ATPLite, 72 h), SU-DHL6; assay type: cell-based; details: in combination with CGS-21680
[1] = tested on: chronic lymphocytic leukemia (CLL) cells; experiment: Apoptosis assay (Hoechst 33342 flow cytometry, 48 h) on patient CLL cells; assay type: cell-based, human
Source text: Patients with active infections or other serious medical conditions were not included in this study. Patients with white blood cell counts of less than 15,000/μl by automated analysis were excluded from this study. Whole blood was layered on Ficoll-Hystopaque (Sigma), and peripheral blood mononuclear cells (PBMC) isolated after centrification. […] One million cells were stained with anti-CD5-PE and anti-CD19-PE-Cy5 (Becton […].). The percentage of B-CLL cells was defined as the percentage of cells doubly expressing CD5 and CD19, as determined by flow cytometry. […] Compound master plates were diluted 1:50 into complete media to create working compound dilutions. Compound crosses were then created by diluting two working dilution plates 1:10 into each plate of cells. […] Hoechst 33342 (Molecular Probes, Eugene Oreg.) at a final concentration of 0.25 μg/mL was added to each well and the cells incubated at 37° C. for an additional ten minutes before being placed on ice until analysis. Plates were then analyzed on a LSR-II flow cytometer (Becton Dickenson, Franklin Lakes, N.J.) equipped with the High Throughput Sampling (HTS) option in high throughput mode. […] The apoptotic fraction was calculated using FlowJo software (Tree Star Inc., Ashland, Oreg.) after excluding debris by a FSC/SSC gate and subsequently gating for cells that accumulate the Hoechst dye.

MM.1S cells [2] = tested on: MM.1S cells
MM.1S cells [3] = experiment: Anti-proliferation assay (ATPLite, 72 h), MM.1S
[4] = tested on: mantle cell lymphoma cell line Mino; experiment: Anti-proliferation assay (ATPLite, 72 h), Mino; assay type: cell-based, human; details: in combination with HE-NECA; Mino
Experimental: (§1) All of the cell lines were cultured in RPMI-1640 media supplemented with 10% FBS except OCI Ly10 cells (IMDM media supplemented with 20% human serum). The ANBL-6 cell line culture media also contained 10 ng/ml IL-6. MM.1S, MM.1R, SU-DHL6, Karpas 422, and OCI ly10 cells were provided by the Dana Farber Cancer Institute. ANBL-6 cells were provided by Bob Orlowsli (M.D. Anderson Cancer Research Center). H929, RPMI-8226, GA-10, Farage, Mino, JVM-13, Pfeiffer, Toledo, and Kusami-1 cells were from ATCC (Cat #'s CCL-155, CRL-9068, CRL-2392 CRL-2630, CRL-3000, CRL-3003, CRL-2632, CRL-2631, and CRL-2724 respectively). MOLP-8, OPM2, EJM, and KSM-12-PE cells were from DSMZ.
(§2) Compounds were prepared in DMSO at 1000× the highest desired concentration. Master plates were generated consisting of serially diluted compounds in 2- or 3-fold dilutions in 384-well format. For single agent dose response curves, the master plates consisted of 9 individual compounds at 12 concentrations in 2- or 3-fold dilutions. For combination matrices, master plates consisted of individual compounds at 6 or 9 concentrations at 2- or 3-fold dilutions.
(§3) The average untreated well value (avg. untreated wells) is the arithmetic mean of 40 wells from the same assay plate treated with vehicle alone. Negative inhibition values result from local variations in treated wells as compared to untreated wells.
(§4) The uncertainty of each fitted parameter was estimated from the range over which the change in reduced chi-squared was less than one, or less than minimum reduced chi-squared if that minimum exceeded one, to allow for underestimated σI errors.
(§5) Single agent curve data were used to define a dilution series for each compound to, be used for combination screening in a 6×6 matrix format. […] For compounds with no detectable single agent activity, a dilution factor of 4 was used, starting from the highest achievable concentration.
(§6) The Loewe additivity model was used to quantify combination effects. Combinations were ranked initially by Additivity Excess Volume, which is defined as ADD Volume=ΣCX, CY(Idata−ILoewe). where ILoewe(CX,CY) is the inhibition that satisfies (CX/ECX)+(CY/ECY)=1, and ECX,Y are the effective concentrations at ILoewe for the single agent curves. A “Synergy Score” was also used, where the Synergy Score S=log fX log fY ΣIdata (Idata−ILoewe), summed over all non-single-agent concentration pairs, and where log fX,Y is the natural logarithm of the dilution factors used for each single agent.

[5] = tested on: mantle cell lymphoma cell line JVM-13; experiment: Anti-proliferation assay (ATPLite, 72 h), JVM-13; assay type: cell-based, human; details: in combination with HE-NECA; JVM-13
Experimental: as §1, §2, §3, §4, §5, §6

[6] = tested on: Pfeiffer (diffuse large B cell lymphoma) cells; experiment: Anti-proliferation assay (ATPLite, 72 h), Pfeiffer; assay type: cell-based; details: in combination with HE-NECA
Experimental: as §1, §2
(§7) The average untreated well value (avg. untreated wells) is the arithmetic mean of 40 wells from the same assay plate treated with vehicle alone. […]
(§8) The Loewe additivity model was used to quantify combination effects. […]

[7] = tested on: Kasumi-1 (acute myelogenous leukemia) cells; experiment: Anti-proliferation assay (ATPLite, 72 h), Kasumi-1; assay type: cell-based; details: in combination with HE-NECA
Experimental: as §1, §2, §7, §8

change in IC50 when cultured in the presence of IL-6 (MM.1S cells [3]; MM.1S, 72 hours, 10 ng/ml IL-6 vs no IL-6): 2.9 fold
SMILES: C[C@@H]1C[C@H]2[C@@H]3CCC4=CC(=O)C=C[C@]4(C)[C@@]3(F)[C@@H](O)C[C@]2(C)[C@@]1(O)C(=O)CO [dexamethasone]
synergy score (RPMI-8226 cells): 4.71 | synergy score (H929 cells; in combination with ADAC, H929): 7.09 | synergy score (MM.1R cells): 0.33 | synergy score (MOLP-8 cells): 4.86 | synergy score (OPM2 cells): 2.85 | synergy score (EJM cells; in combination with CGS-21680): 5.32 | synergy score (ANBL-6 cells): 1.25 | synergy score (KSM-12-PE cells; in combination with CGS-21680, KSM-12-PE): 1.27 | synergy score (OCI-ly10 DLBCL cells): 4.21 | synergy score (Karpas 422 DLBCL cells): 4.32 | synergy score (SU-DHL6 DLBCL cells): 4.85 | Induction of CLL cell apoptosis ([1]; Patient #1, Dexamethasone 1 nM alone): 9.3% | Induction of CLL cell apoptosis ([1]; Patient #1, Dexamethasone 10 nM alone): 33% | Induction of CLL cell apoptosis ([1]; Patient #1, Dexamethasone 100 nM alone): 56% | Induction of CLL cell apoptosis ([1]; Patient #2, Dexamethasone 8.4 nM alone): 8.4% | Induction of CLL cell apoptosis ([1]; Patient #2, Dexamethasone 11 nM alone): 11% | Induction of CLL cell apoptosis ([1]; Patient #2, Dexamethasone 36 nM alone): 36% | Induction of CLL cell apoptosis ([1]; Patient #2, Dexamethasone 50 nM alone): 50% | apoptosis, CLL cells patient 1 ([1]; patient 1, 48 hours): 33% | apoptosis, CLL cells patient #2 ([1]; patient #2, 48 hours): 27% | inhibition (MM.1S cells [2]): 47% and 36% and 60% and 48% | percent inhibition of cell proliferation (MM.1S cells [3]; DEX 0.0462 nM, Cl-IB-MECA 0 nM, MM.1S, 72 h): 12% | percent inhibition of cell proliferation (MM.1S cells [3]; DEX 0.139 nM alone, listed as DEX): 1.8% and 10% | percent inhibition of cell proliferation (MM.1S cells [3]; DEX 0.139 nM, Cl-IB-MECA 0 nM, MM.1S, 72 h): 0.78% | percent inhibition of cell proliferation (MM.1S cells [3]; DEX 0.416 nM alone): 8.3% | percent inhibition of cell proliferation (MM.1S cells [3]; DEX 1.85 nM alone, listed as DEX): 14% and 27% | percent inhibition of cell proliferation (MM.1S cells [3]; DEX 1.85 nM, CCPA 0 μM, MM.1S, 72 h): 13% | percent inhibition of cell proliferation (MM.1S cells [3]; DEX 3.74 nM alone): 32% | percent inhibition of cell proliferation (MM.1S cells [3]; DEX 3.74 nM, Cl-IB-MECA 0 nM, MM.1S, 72 h): 22% | percent inhibition of cell proliferation (MM.1S cells [3]; DEX 5.56 nM alone, listed as DEX): 20% and 30% and 33% | percent inhibition of cell proliferation (MM.1S cells [3]; DEX 5.56 nM, CCPA 0 μM, MM.1S, 72 h): 36% | percent inhibition of cell proliferation (MM.1S cells [3]; DEX 11.2 nM alone, listed as DEX): 28% and 54% | percent inhibition of cell proliferation (MM.1S cells [3]; DEX 11.2 nM, Cl-IB-MECA 0 nM, MM.1S, 72 h): 29% | percent inhibition of cell proliferation (MM.1S cells [3]; DEX 33.7 nM alone, listed as DEX): 48% and 64% | percent inhibition of cell proliferation (MM.1S cells [3]; DEX 33.7 nM, Cl-IB-MECA 0 nM, MM.1S, 72 h): 56% | percent inhibition of cell proliferation (MM.1S cells [3]; DEX 0.0378 μM alone): 61% | percent inhibition of cell proliferation (MM.1S cells [3]; DEX 50 nM alone, listed as DEX): 55% and 79% and 70% | percent inhibition of cell proliferation (MM.1S cells [3]; DEX 50 nM, CCPA 0 μM, MM.1S, 72 h): 72% | percent inhibition of cell proliferation (MM.1S cells [3]; DEX 101 nM alone, listed as DEX): 64% and 68% | percent inhibition of cell proliferation (MM.1S cells [3]; DEX 101 nM, Cl-IB-MECA 0 nM, MM.1S, 72 h): 67% | percent inhibition of cell proliferation (MM.1S cells [3]; DEX 0.113 μM alone): 76% | percent inhibition of cell proliferation (MM.1S cells [3]; DEX 150 nM alone, listed as DEX): 73% and 87% and 80% | percent inhibition of cell proliferation (MM.1S cells [3]; DEX 150 nM, CCPA 0 μM, MM.1S, 72 h): 76% | percent inhibition of cell proliferation (MM.1S cells [3]; DEX 303 nM alone): 70% | percent inhibition of cell proliferation (MM.1S cells [3]; DEX 0.34 μM alone): 78% | percent inhibition of cell proliferation (MM.1S cells [3]; DEX 1.02 μM alone): 82% | percent inhibition of cell proliferation (MM.1S cells [3]; DEX 0.0462. nM alone): −2.5% | percent inhibition of cell proliferation (MM.1S cells [3]; DEX 0.4.16 nM alone): −5.2% | percent inhibition of cell proliferation (MM.1S cells [3]; DEX 0.4.16 nM, Cl-IB-MECA 0 nM, MM.1S, 72 h): 4.5% | percent inhibition of cell proliferation (MM.1S cells [3]; DEX 3.74. nM alone): 18% | percent inhibition of cell proliferation (MM.1S cells [3]; DEX […], Cl-IB-MECA 0 nM, MM.1S, 72 h): 9.7% | synergy score (MM.1S cells [3]; in combination with ADAC, MM.1S): 1.98 | synergy score (MM.1S cells [3]; in combination with CGS-21680, MM.1S): 8.06

SMILES: COC1=C2C[C@@H](C)C[C@H](OC)[C@H](O)[C@@H](C)/C=C(\C)[C@H](OC(N)=O)[C@@H](OC)/C=C\C=C(/C)C(=O)NC(=CC1=O)C2=O [geldanomycin]
synergy score (H929 cells): 1.82 | synergy score (EJM cells; in combination with HE-NECA): 1.48 | synergy score (KSM-12-PE cells; in combination with HE-NECA, KSM-12_PE): 1.37 | synergy score [4]: 1.27 | synergy score [5]: 1.84 | synergy score [6]: 2.1 | synergy score [7]: 2.47 | synergy score (MM.1S cells [3]): 2.2
